Experimental data from patent publication US7803559B1, “Protein aggregation regulators” (The Regents of the University of CA, priority 2003, dated 2010).
Where a name gives a salt, the structure may show the parent alone.

tested on: ARN127(65)CFP/YFP; test: Secondary screen using the AR FRET assay; assay type: cell-based, human; settings: not given
Procedure: Selected candidate compounds and/or libraries of compounds were screened as follows. Daughter plates were created in duplicate from the 384-well microtiter plates that contained the compounds at a concentration of 80 μg/ml. […] To screen a library, HEK293 cells stably expressing RFP were plated in 10 cm plates to obtain ˜80% confluency on the day of transfection. Each plate was transfected with 2 μg of ARN127(65)CFP/YFP each, and 0.7 μg p6RGRΔ using 50 μL Plus Reagent™ and 76 μL Lipofectamine™ according to manufacturer's protocol (Invitrogen). After 3 hours, complete medium was added and the plates were incubated further for 3 hours. […] The cells were then cultured for ˜48 hours to allow aggregate formation. After fixing the cells FRET signal was measured using a SAFIRE Fluorescence Plate Reader (Tecan, Inc.) according to methods described above. Several internal controls were used to standardize each experiment. Mock transfected cells were used to control for background autofluorescence and light scattering by mammalian cells. To control for CFP bleedthrough and crossover excitation of YFP, additional wells contained cells expressing ARN127(25)CFP or ARN127(25)YFP alone. RFP was measured to control for non-specific effects on steady-state protein levels. ARN127(25)CFP/YFP expression served as a reference point for background FRET levels without aggregation (a theoretical maximum effect on aggregation inhibition). FRET measurements for each experiment were thus scaled between 100% (cells with no drug treatment) and 0% (FRET levels from unexpanded protein).
Selected candidate compounds from the primary screen of all three libraries were assayed again in a secondary screen using the AR FRET assay.
Finally, the role of F-actin in preventing polyglutamine aggregation was investigated by treating cells with two agents that prevent actin depolymerization: phalloidin and jasplakinolide.

Compound | Max % Inhibition
(2-hydroxyethyl) trimethylammonium chloride carbamate [Carbachol] | 20%

same assay, conditions: agents that prevent actin depolymerization, Table 5

Compound | Max % Inhibition
C/C1=C\[C@H](C)C[C@H](C)OC(=O)C[C@H](c2ccc(O)cc2)NC(=O)[C@@H](Cc2c(Br)[nH]c3ccccc23)N(C)C(=O)[C@H](C)NC(=O)[C@@H](C)C1 [Jasplakinolide] | 30%
Phalloidin | 35%

same assay, conditions: secondary screen, AR FRET assay, Table 3

Compound | Max % Inhibition
O=C1CC(c2ccc(O)cc2)Oc2cc(O)cc(O)c21 (racemic) [Naringenin, (±)-2,3-Dihydro-5,7-dihydroxy-2-(4-hydroxyphenyl)-4H-1-benzopyran-4-one] | 19%
COc1ccc([C@@H]2Sc3ccccc3N(CCN(C)C)C(=O)[C@@H]2OC(C)=O)cc1.Cl (relative stereo) [Diltiazem HCl, (2S,3S)-(+)-cis-3-Acetoxy-5-(2-dimethylaminoethyl)-2,3-dihydro-2-(4-methoxyphenyl)-1,5-benzothiazepin-4(5H)-one hydrochloride] | 22%
COc1ccc2c(c1OC)C(=O)O[C@H]2[C@@H]1c2cc3c(cc2CCN1C)OCO3 [1S,9R-beta hydrastine, 1S,9R-(+)-beta hydrastine] | 18%
CCCCC/C=C\C/C=C\C/C=C\C/C=C\CCCC(=O)O [Arachidonic acid, cis,cis,cis,cis-5,8,11,14-Eicosatetraenoic aci] | 19%
CNCCc1ccccn1.Cl.Cl [Betahistine hydrochloride, N-methyl-N-(2-pyridin-2-ylethyl)amine dihydrochloride] | 19%
NS(=O)(=O)c1cc2c(cc1Cl)N=CNS2(=O)=O [Chlorothiazide, 6-Chloro-2H-1,2,4-benzothiadiazine-7-sulfonamide 1,1-dioxide] | 19%
COc1cc(C)c(C(=O)Oc2cc(C)c(C(=O)O)c(O)c2C)c(OC)c1C [Diffractic acid, 4-[(2,4-dimethoxy-3,6-dimethylbenzoyl)-oxy]-2-hydroxy-3,6-dimethylbenzoic acid] | 20%
O=C(O)c1ccccc1OP(=O)(O)O [Fosfosal, 2-phosphonooxybenzoic acid] | 23%
CC1=CC(=O)C2=C(C)CCC3[C@H](C)C(=O)O[C@@H]3[C@H]12 (stereo partly drawn) [Leucodin, (3S,9aR,9bS)-3,6,9-trimethyl-3,3a,4,5,9a,9b-hexahydroazuleno-[4,5-b]furan-2,7-dione] | 23%
Cc1cc(-c2ccccc2)nnc1NCCN1CCOCC1 [Minaprine HCl, N-(4-Methyl-6-phenyl-3-pyridazinyl)-4-morpholineethanamin] | 18%
CCOC(=O)Nc1c[n+](N2CCOCC2)no1 [Molsidomine, N-(Ethoxycarbonyl)-3-(4-morpholino)sydnone imine] | 20%
CC(C)(C)NCC(O)COc1cccc2c1CC(O)C(O)C2 (centres unmarked) [Nadolol] | 19%
DL-alanine,2,4-chlorophenyl-1,1-dimethylethyl ester [Alaproclate] | 17%
N,N-bis(4-aminobutyl)amine [Spermidine HCl] | 19%
